≈ marks a conversion by molar mass, not a printed value.
Key:
drug-resistant bacteria = settings: cited from earlier work
[1] = tested on: gram-negative and gram-positive bacteria sensitive to the kanamycins; settings: cited from earlier work
[2] = tested on: Escherichia coli K-12 ML 1410 R81; assay: MIC, serial dilution on nutrient agar; type: cell-based; settings: 18 h, read-out: Minimum Inhibitory Concentrations
Bacillus anthracis = assay: microbe, parasite or virus in culture; type: cell-based; settings: 18 h, read-out: Minimum Inhibitory Concentrations
Escherichia coli W677 = assay: MIC, serial dilution on nutrient agar; type: cell-based; settings: Escherichia coli W677; nutrient agar, 37°C, 18 hours; read-out: Minimum Inhibitory Concentrations
[3] = tested on: Shigella dysenteriae JS 11910; assay: MIC, serial dilution on nutrient agar; type: cell-based; settings: JS11910, 18 h, read-out: Minimum Inhibitory Concentrations
[4] = tested on: Pseudomonas aeruginosa TI-13; assay: MIC, serial dilution on nutrient agar; type: cell-based; settings: TI13; Pseudomonas aeruginosa TI-13; nutrient agar, 37°C, 18 hours; read-out: Minimum Inhibitory Concentrations
[5] = tested on: Pseudomonas aeruginosa A3; assay: MIC, serial dilution on nutrient agar; type: cell-based; settings: Pseudomonas aeruginosa A3; nutrient agar, 37°C, 18 hours; read-out: Minimum Inhibitory Concentrations
[6] = tested on: Escherichia coli K-12 ML 1410; assay: MIC, serial dilution on nutrient agar; type: cell-based; settings: K12ML1410; Escherichia coli K-12 ML 1410; nutrient agar, 37°C, 18 hours; read-out: Minimum Inhibitory Concentrations
Proteus vulgaris OX 19 = assay: MIC, serial dilution on nutrient agar; type: cell-based; settings: OX19; Proteus vulgaris OX 19; nutrient agar, 37°C, 18 hours; read-out: Minimum Inhibitory Concentrations
Sarcina lutea PCI 1001 = assay: MIC, serial dilution on nutrient agar; type: cell-based; settings: Micrococcus luteus, PCI1001; Sarcina lutea PCI 1001; nutrient agar, 37°C, 18 hours; read-out: Minimum Inhibitory Concentrations
[7] = tested on: Pseudomonas aeruginosa GN315; assay: MIC, serial dilution on nutrient agar; type: cell-based; settings: Pseudomonas aeruginosa GN315; nutrient agar, 37°C, 18 hours; read-out: Minimum Inhibitory Concentrations
[8] = tested on: Bacillus subtilis PCI 219; assay: MIC, serial dilution on nutrient agar; type: cell-based; settings: PCI219; Bacillus subtilis PCI 219; nutrient agar, 37°C, 18 hours; read-out: Minimum Inhibitory Concentrations
[9] = tested on: Pseudomonas aeruginosa 99; assay: MIC, serial dilution on nutrient agar; type: cell-based; settings: Pseudomonas aeruginosa 99; nutrient agar, 37°C, 18 hours; read-out: Minimum Inhibitory Concentrations
[10] = tested on: Escherichia coli K-12 ML 1629; assay: MIC, serial dilution on nutrient agar; type: cell-based; settings: K12ML1629; Escherichia coli K-12 ML 1629; nutrient agar, 37°C, 18 hours; read-out: Minimum Inhibitory Concentrations
[11] = tested on: Mycobacterium smegmatis ATCC 607; assay: MIC, serial dilution on nutrient agar; type: cell-based; settings: Mycolicibacterium smegmatis, ATCC607; Mycobacterium smegmatis ATCC 607; nutrient agar, 37°C, 18 hours; read-out: Minimum Inhibitory Concentrations
[12] = tested on: Pseudomonas aeruginosa No.12; assay: MIC, serial dilution on nutrient agar; type: cell-based; settings: Pseudomonas aeruginosa, NO.12, 18 h, read-out: Minimum Inhibitory Concentrations
[13] = tested on: Klebsiella pneumoniae 22 -3038; assay: MIC, serial dilution on nutrient agar; type: cell-based; settings: 223038; Klebsiella pneumoniae 22 -3038; nutrient agar, 37°C, 18 hours; read-out: Minimum Inhibitory Concentrations
[14] = tested on: Escherichia coli LA290 R55; assay: MIC, serial dilution on nutrient agar; type: cell-based; settings: LA290R55, 18 h, read-out: Minimum Inhibitory Concentrations
[15] = tested on: Bacillus cereus ATCC 10702; assay: MIC, serial dilution on nutrient agar; type: cell-based; settings: ATCC10702; Bacillus cereus ATCC 10702; nutrient agar, 37°C, 18 hours; read-out: Minimum Inhibitory Concentrations
[16] = tested on: Staphylococcus aureus Smith; assay: MIC, serial dilution on nutrient agar; type: cell-based; settings: Staphylococcus aureus Smith; nutrient agar, 37°C, 18 hours; read-out: Minimum Inhibitory Concentrations
[17] = tested on: Shigella flexneri 4b JS 11811; assay: MIC, serial dilution on nutrient agar; type: cell-based; settings: 4BJS11811, 37°C, 18 hours, read-out: Minimum Inhibitory Concentrations
Protocol: (§1) The minimum inhibitory concentrations (mcg/ml) of 1,2'-di-N-[(S)-4-amino-2-hydroxybutyryl]-kanamycin B (abbreviated as 1,2'-AHB-KMB), 1,2'-di-N-[(S)-4-amino-2-hydroxybutyryl]-3',4'-dideoxykanamycin B (abbreviated as 1,2'-AHB-DKB), 1,2'-di-N-DL-isoseryl-3',4'-dideoxykanamycin B (abbreviated as 1,2'-IS-DKB) and 1,2'-di-N-DL-isoseryl-kanamycin B (abbreviated as 1,2'-IS-KMB) against various microorganisms were determined according to serial dilution method using nutrient agar medium at 37°C, the estimation being effected after 18 hours incubation. For comparison, the minimum inhibitory concentrations of kanamycin B (abbreviated as KMB) and 3',4'-dideoxykanamycin B (abbreviated as DKB) were also determined in the same manner as mentioned above.

[18] = tested on: Escherichia coli K-12 ML 1630; assay: MIC, serial dilution on nutrient agar; type: cell-based; settings: K12ML1630, 37°C, 18 hours, read-out: Minimum Inhibitory Concentrations
Protocol: as §1

Shigella sonnei JS 11746 = assay: MIC, serial dilution on nutrient agar; type: cell-based; settings: JS11746, 37°C, 18 hours, read-out: Minimum Inhibitory Concentrations
Protocol: as §1

Escherichia coli NIHJ = assay: MIC, serial dilution on nutrient agar; type: cell-based; settings: Escherichia coli NIHJ; nutrient agar, 37°C, 18 hours; read-out: Minimum Inhibitory Concentrations
[19] = tested on: Escherichia coli LA290 R56; assay: MIC, serial dilution on nutrient agar; type: cell-based; settings: LA290R56, 18 h, read-out: Minimum Inhibitory Concentrations
[20] = tested on: Staphylococcus aureus Terejima; assay: MIC, serial dilution on nutrient agar; type: cell-based; settings: Staphylococcus aureus Terejima; nutrient agar, 37°C, 18 hours; read-out: Minimum Inhibitory Concentrations
Salmonella typhosa T-63 = assay: MIC, serial dilution on nutrient agar; type: cell-based; settings: Salmonella enterica, 18 h, read-out: Minimum Inhibitory Concentrations
Escherichia coli K-12 = assay: MIC, serial dilution on nutrient agar; type: cell-based; settings: K12; Escherichia coli K-12; nutrient agar, 37°C, 18 hours; read-out: Minimum Inhibitory Concentrations
[21] = tested on: Escherichia coli LA290 R64; assay: MIC, serial dilution on nutrient agar; type: cell-based; settings: LA290R64, 18 h, read-out: Minimum Inhibitory Concentrations
[22] = tested on: Corynebacterium bovis 1810; assay: MIC, serial dilution on nutrient agar; type: cell-based; settings: Corynebacterium bovis 1810; nutrient agar, 37°C, 18 hours; read-out: Minimum Inhibitory Concentrations
[23] = tested on: Bacillus subtilis NRRL B-558; assay: MIC, serial dilution on nutrient agar; type: cell-based; settings: NRRLB558; Bacillus subtilis NRRL B-558; nutrient agar, 37°C, 18 hours; read-out: Minimum Inhibitory Concentrations
[24] = tested on: Salmonella enteritidis 1891; assay: MIC, serial dilution on nutrient agar; type: cell-based; settings: Salmonella enterica; Salmonella enteritidis 1891; nutrient agar, 37°C, 18 hours; read-out: Minimum Inhibitory Concentrations
[25] = tested on: Staphylococcus aureus FDA 209P; assay: MIC, serial dilution on nutrient agar; type: cell-based; settings: FDA209P; Staphylococcus aureus FDA 209P; nutrient agar, 37°C, 18 hours; read-out: Minimum Inhibitory Concentrations
[26] = tested on: Klebsiella pneumoniae PCI 602; assay: MIC, serial dilution on nutrient agar; type: cell-based; settings: PCI602; Klebsiella pneumoniae PCI 602; nutrient agar, 37°C, 18 hours; read-out: Minimum Inhibitory Concentrations
[27] = tested on: Escherichia coli JR66/W677; assay: MIC, serial dilution on nutrient agar; type: cell-based; settings: Escherichia coli, JR66/W677, 18 h, read-out: Minimum Inhibitory Concentrations

SMILES: NCC(O)C(=O)N[C@@H]1C[C@H](N)[C@@H](O[C@H]2O[C@H](CN)[C@@H](O)[C@H](O)[C@H]2N)[C@H](O)[C@H]1O[C@H]1O[C@H](CO)[C@@H](O)[C@H](N)[C@H]1O (some centres unmarked) [1N-isoserylkanamycinB]
- antibacterial activity against the drug-resistant bacteria (drug-resistant bacteria): effective
- effectiveness against bacteria sensitive to the kanamycins [1]: effective

SMILES: NCC(O)C(=O)N[C@@H]1C[C@H](N)[C@@H](O[C@H]2O[C@H](CN)[C@@H](O)[C@H](O)[C@H]2O)[C@H](O)[C@H]1O[C@H]1O[C@H](CO)[C@@H](O)[C@H](N)[C@H]1O (some centres unmarked) [1-N-isoserylkanamycin]
- antibacterial activity against the drug-resistant bacteria (drug-resistant bacteria): effective
- effectiveness against bacteria sensitive to the kanamycins [1]: effective

SMILES: NCC[C@H](O)C(=O)N[C@@H]1CC[C@@H](CN)O[C@@H]1O[C@H]1[C@H](O)[C@@H](O[C@H]2O[C@H](CO)[C@@H](O)[C@H](N)[C@H]2O)[C@H](NC(=O)[C@@H](O)CCN)C[C@@H]1N [1,2'-AHB-DKB, 1,2'-di-N-[(S)-4-amino-2-hydroxybutyryl]-3',4'-dideoxykanamycin B]
- MIC [2]: 1.56 µg/mL (≈ 2.39 µM)
- MIC (Bacillus anthracis): < 0.2 µg/mL
- MIC (Escherichia coli W677): 1.56 µg/mL (≈ 2.39 µM)
- MIC [3]: 6.25 µg/mL (≈ 9.56 µM)
- MIC [4]: 12.5 µg/mL (≈ 19.1 µM)
- MIC [5]: 25 µg/mL (≈ 38.2 µM)
- MIC [6]: 3.13 µg/mL (≈ 4.79 µM)
- MIC (Proteus vulgaris OX 19): 0.78 µg/mL (≈ 1.19 µM)
- MIC (Sarcina lutea PCI 1001): 1.56 µg/mL (≈ 2.39 µM)
- MIC [7]: 100 µg/mL (≈ 153 µM)
- MIC [8]: < 0.2 µg/mL
- MIC [9]: 50 µg/mL (≈ 76.5 µM)
- MIC [10]: 3.13 µg/mL (≈ 4.79 µM)
- MIC [11]: 0.2 µg/mL (≈ 0.306 µM)
- MIC [12]: 6.25 µg/mL (≈ 9.56 µM)
- MIC [13]: 1.56 µg/mL (≈ 2.39 µM)
- MIC [14]: 0.78 µg/mL (≈ 1.19 µM)
- MIC [15]: 1.56 µg/mL (≈ 2.39 µM)
- MIC [16]: 0.2 µg/mL (≈ 0.306 µM)
- MIC [17]: 6.25 µg/mL (≈ 9.56 µM)
- MIC [18]: 3.13 µg/mL (≈ 4.79 µM)
- MIC (Shigella sonnei JS 11746): 6.25 µg/mL (≈ 9.56 µM)
- MIC (Escherichia coli NIHJ): 3.13 µg/mL (≈ 4.79 µM)
- MIC [19]: 0.78 µg/mL (≈ 1.19 µM)
- MIC [20]: < 0.2 µg/mL
- MIC (Salmonella typhosa T-63): 0.78 µg/mL (≈ 1.19 µM)
- MIC (Escherichia coli K-12): 1.56 µg/mL (≈ 2.39 µM)
- MIC [21]: 0.78 µg/mL (≈ 1.19 µM)
- MIC [22]: 0.78 µg/mL (≈ 1.19 µM)
- MIC [23]: 0.2 µg/mL (≈ 0.306 µM)
- MIC [24]: 1.56 µg/mL (≈ 2.39 µM)
- MIC [25]: 0.78 µg/mL (≈ 1.19 µM)
- MIC [26]: 0.78 µg/mL (≈ 1.19 µM)
- MIC [27]: 6.25 µg/mL (≈ 9.56 µM)

— patent US3940382A, “1,2'-Di-N-substituted kanamycin B compounds” (Zaidan Hojin Biseibutsu Kagaku Kenkyu Kai, priority 1973, dated 1976)
